# Results reported in US9409952B2, “Peptide-compound cyclization method” (Chugai Seiyaku Kabushiki Kaisha, priority 2011, dated 2016).
# Read-outs that look alike come from different tables or passages of the source. Starred links: 1 amine or outer side, 2 acyl side, 3 side chain; linkers in the order of their positions; H or OH if unused. Positions of bridges follow the written chain, without caps; N, C: chain ends. Non-standard residues stand in square brackets, D forms with d. Residues, ends and D or L forms follow the SMILES beside them. *: point of attachment. Phe(4-(CH2)5CO) = O=C([C@H](Cc1ccc(CCCCCC(=O)[*:3])cc1)N[*:1])[*:2]; Phe(3-(CH2)4CO) = O=C([C@H](Cc1cccc(CCCCC(=O)[*:3])c1)N[*:1])[*:2]; NMeF = CN[C@@H](Cc1ccccc1)C(=O)O; NMeI = CC[C@H](C)[C@H](NC)C(=O)O; NMeβAla = CN(CCC(=O)[*:2])[*:1]; NMeL = CN[C@@H](CC(C)C)C(=O)O; NMeV = CN[C@H](C(=O)O)C(C)C; NMeA = CN[C@@H](C)C(=O)O; Piperidide = C1CCN(*)CC1; dNMeA = CN[C@H](C)C(=O)O; β3hA = C[C@H](N)CC(=O)O; Sar = CNCC(=O)O; tBu = CC(C)(C)*
# What was measured:
# [1] = PAMPA (parallel artificial membrane permeability assay); assay type: in vitro ADME; conditions: PAMPA
# Procedure, shortened: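 Artificial membrane was 10% (w/v) egg lecithin plus 0.5% (w/v) cholesterol in dodecane on a PVDF filter. A 10 mM DMSO stock was added at 0.5% (v/v) to donor buffer (50 mM MOPSO, pH 6.5, 5.0% glycocholic acid). After 18 h at 37 °C, LC/MS or LC/UV gave donor and acceptor levels for Pe.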
# [2] = Metabolic stability in human hepatic microsome; assay type: in vitro ADME; conditions: microsomes
# [3] = membrane permeation rate (Pe), 50 mM MOPSO buffer pH 6.5 with 5.0% glycocholic acid, 37° C., 18 hours, read-out: iPAMPA Pe
# [4] = pH 7.4, human hepatic microsome, NADPH(+), read-out: CL NADPH(+)
structure (smiles),measurement,setting,value
CC(C)C[C@H]1C(=O)N(C)[C@@H](Cc2ccccc2)C(=O)N[C@@H](Cc2ccccc2)C(=O)N(C)[C@@H](C)C(=O)N(C)[C@@H](C(C)C)C(=O)N[C@@H]([C@@H](C)O)C(=O)N[C@H](C(=O)N2CCCCC2)CC(=O)N(C)[C@@H](C)C(=O)N[C@@H](COC(C)(C)C)C(=O)NCC(=O)N1C [DP-438] ([NMeA]S(tBu)G[NMeL][NMeF]F[NMeA][NMeV]TD-Piperidide; lactam N-10),"Papp at 18 hours, 50 µM",[1]; [3],38 ×10⁻⁶ cm/s
same,microsomal CLint at 1 uM,[2]; [4],155 µL/min/mg
CC[C@H](C)[C@H]1C(=O)NCC(=O)N[C@@H](C)CC(=O)N(C)[C@H](C)C(=O)N[C@@H](Cc2ccccc2)C(=O)N(C)[C@@H](CC(C)C)C(=O)N[C@@H](COC(C)(C)C)C(=O)N[C@@H](Cc2ccccc2)C(=O)N2CCC[C@H]2C(=O)N[C@@H]([C@@H](C)O)C(=O)N[C@@H](CC(C)C)C(=O)N1C [DP-815] (cyclo(F[NMeL]S(tBu)FPTL[NMeI]G[β3hA][dNMeA])),"Papp at 18 hours, 50 µM",[1]; pH 6.5,42 ×10⁻⁶ cm/s
same,microsomal CLint at 1 uM,"[2]; human, pH 7.4, CL NADPH(+)",104 µL/min/mg
CC(C)C[C@H]1C(=O)N[C@@H]([C@@H](C)O)C(=O)N(C)[C@@H](C)C(=O)N[C@H](C(=O)N(C)[C@@H](Cc2ccccc2)C(=O)N[C@@H](C)C(=O)N2CCCCC2)CC(=O)N(C)[C@H](C)C(=O)N(C)[C@@H](Cc2ccccc2)C(=O)N(C)[C@@H](C)C(=O)N[C@@H](C)C(=O)N(C)[C@@H](C)C(=O)N(C)[C@@H](Cc2ccccc2)C(=O)N1C [DP-353] ([dNMeA][NMeF][NMeA]A[NMeA][NMeF][NMeL]T[NMeA]D[NMeF]A-Piperidide; lactam N-10),"Papp at 18 hours, 50 µM",[1]; [3],16 ×10⁻⁶ cm/s
same,microsomal CLint at 1 uM,[2]; [4],13 µL/min/mg
CC(C)C[C@H]1C(=O)N[C@@H](COC(C)(C)C)C(=O)N(C)[C@@H](Cc2ccccc2)C(=O)N(C)[C@@H](CC(C)C)C(=O)N[C@H](C(=O)N2CCCCC2)CC(=O)N(C)CC(=O)N[C@@H]([C@@H](C)O)C(=O)N1C [DP-743] ([Sar]T[NMeL]S(tBu)[NMeF][NMeL]D-Piperidide; lactam N-7),"Papp at 18 hours, 50 µM",[1]; [3],16 ×10⁻⁶ cm/s
same,microsomal CLint at 1 uM,[2]; [4],126 µL/min/mg
CC[C@H](C)[C@@H]1NC(=O)CCCCc2cccc(c2)C[C@@H](C(=O)N2CCCCC2)NC(=O)[C@H](Cc2ccccc2)N(C)C(=O)[C@H](CC(C)C)N(C)C(=O)CN(C)C(=O)[C@H]([C@@H](C)O)NC(=O)[C@H](C)N(C)C(=O)[C@H](C(C)C)N(C)C(=O)[C@H](C)NC(=O)[C@H](CC(C)C)N(C)C(=O)[C@H](Cc2ccccc2)N(C)C1=O [DP-886] (I[NMeF][NMeL]A[NMeV][NMeA]T[Sar][NMeL][NMeF][Phe(3-(CH2)4CO)]-Piperidide; lactam N-11),"Papp at 18 hours, 50 µM",[1]; [3],22 ×10⁻⁶ cm/s
same,microsomal CLint at 1 uM,[2]; [4],162 µL/min/mg
CC[C@H](C)[C@H]1C(=O)N[C@@H]([C@@H](C)O)C(=O)N(C)CC(=O)N(C)[C@@H](CC(C)C)C(=O)N[C@H](C(=O)N2CCCCC2)Cc2ccc(cc2)CCCCCC(=O)N[C@@H](CC(C)C)C(=O)N(C)[C@@H](CC(C)C)C(=O)N(C)[C@@H](Cc2ccccc2)C(=O)N[C@@H](C)C(=O)N(C)[C@@H](Cc2ccccc2)C(=O)N1C [DP-856] (L[NMeL][NMeF]A[NMeF][NMeI]T[Sar][NMeL][Phe(4-(CH2)5CO)]-Piperidide; lactam N-10),"Papp at 18 hours, 50 µM",[1]; [3],0.44 ×10⁻⁶ cm/s
same,microsomal CLint at 1 uM,[2]; [4],183 µL/min/mg
CC(C)C[C@H]1C(=O)N(C)[C@@H](CC(C)C)C(=O)N[C@@H](C(C)C)C(=O)N[C@H](C(=O)N(C)[C@@H](Cc2ccccc2)C(=O)N(C)[C@@H](Cc2ccccc2)C(=O)N[C@@H](C)C(=O)N2CCCCC2)CC(=O)N(C)CCC(=O)N(C)[C@@H](C)C(=O)N(C)[C@@H](Cc2ccccc2)C(=O)N[C@@H]([C@@H](C)O)C(=O)N(C)CC(=O)N1C [DP-212] ([NMeβAla][NMeA][NMeF]T[Sar][NMeL][NMeL]VD[NMeF][NMeF]A-Piperidide; lactam N-9),"Papp at 18 hours, 50 µM",[1]; [3],29 ×10⁻⁶ cm/s
same,microsomal CLint at 1 uM,[2]; [4],27 µL/min/mg
CC(C)C[C@H]1C(=O)N[C@H](C(=O)N2CCCCC2)CC(=O)N(C)[C@H](C)C(=O)N(C)[C@@H](Cc2ccccc2)C(=O)N(C)[C@@H](CC(C)C)C(=O)N[C@@H]([C@@H](C)O)C(=O)N(C)CC(=O)N[C@@H](COC(C)(C)C)C(=O)N1C [DP-527] ([dNMeA][NMeF][NMeL]T[Sar]S(tBu)[NMeL]D-Piperidide; lactam N-8),"Papp at 18 hours, 50 µM",[1]; [3],11 ×10⁻⁶ cm/s
same,microsomal CLint at 1 uM,[2]; [4],30 µL/min/mg
CC(C)C[C@@H]1NC(=O)[C@H](CC(C)C)N(C)C(=O)[C@H](Cc2ccccc2)N(C)C(=O)[C@@H](C)N(C)C(=O)C[C@@H](C(=O)N2CCCCC2)NC(=O)[C@H](Cc2ccccc2)N(C)C(=O)[C@H](C)N(C)C(=O)[C@H](C)NC(=O)CN(C)C(=O)[C@H](C)N(C)C(=O)[C@H]([C@@H](C)O)NC(=O)[C@H](C(C)C)N(C)C1=O [DP-466] ([dNMeA][NMeF][NMeL]L[NMeV]T[NMeA][Sar]A[NMeA][NMeF]D-Piperidide; lactam N-12),"Papp at 18 hours, 50 µM",[1]; [3],15 ×10⁻⁶ cm/s
same,microsomal CLint at 1 uM,[2]; [4],17 µL/min/mg
CC[C@H](C)[C@H]1C(=O)NCC(=O)N[C@@H](C)CC(=O)N(C)[C@H](C)C(=O)N[C@@H](Cc2ccccc2)C(=O)N(C)[C@@H](CC(C)C)C(=O)N[C@@H](COC(C)(C)C)C(=O)N[C@@H](Cc2ccccc2)C(=O)N2CCC[C@H]2C(=O)N[C@@H]([C@@H](C)O)C(=O)N[C@@H](CC(C)C)C(=O)N(C)[C@@H](C)C(=O)N1C [DP-754] (cyclo(F[NMeL]S(tBu)FPTL[NMeA][NMeI]G[β3hA][dNMeA])),"Papp at 18 hours, 50 µM",[1]; pH 6.5,32 ×10⁻⁶ cm/s
same,microsomal CLint at 1 uM,"[2]; human, pH 7.4, CL NADPH(+)",41 µL/min/mg
CC(C)C[C@H]1C(=O)N(C)[C@@H](CC(C)C)C(=O)N[C@@H](COC(C)(C)C)C(=O)N[C@H](C(=O)N2CCCCC2)CC(=O)N[C@@H](C(C)C)C(=O)N(C)[C@@H](Cc2ccccc2)C(=O)N(C)CC(=O)N[C@@H]([C@@H](C)O)C(=O)N1C [DP-694] (V[NMeF][Sar]T[NMeL][NMeL]S(tBu)D-Piperidide; lactam N-8),"Papp at 18 hours, 50 µM",[1]; [3],33 ×10⁻⁶ cm/s
same,microsomal CLint at 1 uM,[2]; [4],170 µL/min/mg
CC(C)C[C@@H]1NC(=O)[C@H](C)NC(=O)C[C@@H](C(=O)N2CCCCC2)NC(=O)[C@H](Cc2ccccc2)N(C)C(=O)[C@H](CC(C)C)N(C)C(=O)[C@H](C)NC(=O)[C@H](Cc2ccccc2)N(C)C(=O)[C@H](CC(C)C)N(C)C1=O [DP-673] (AL[NMeL][NMeF]A[NMeL][NMeF]D-Piperidide; lactam N-8),"Papp at 18 hours, 50 µM",[1]; [3],30 ×10⁻⁶ cm/s
same,microsomal CLint at 1 uM,[2]; [4],631 µL/min/mg
CC[C@H](C)[C@@H]1NC(=O)[C@H](Cc2ccccc2)N(C)C(=O)[C@H](C)N(C)C(=O)CN(C)C(=O)[C@H]([C@@H](C)O)NC(=O)[C@H](C)N(C)C(=O)[C@H](C(C)C)N(C)C(=O)[C@H](C)NC(=O)CCN(C)C(=O)C[C@@H](C(=O)N(C)[C@@H](Cc2ccccc2)C(=O)N(C)[C@@H](Cc2ccccc2)C(=O)N[C@@H](C)C(=O)N2CCCCC2)NC1=O [DP-498] ([NMeβAla]A[NMeV][NMeA]T[Sar][NMeA][NMeF]ID[NMeF][NMeF]A-Piperidide; lactam N-10),"Papp at 18 hours, 50 µM",[1]; [3],2.7 ×10⁻⁶ cm/s
same,microsomal CLint at 1 uM,[2]; [4],9 µL/min/mg
CC(C)C[C@@H]1NC(=O)[C@H](C)N(C)C(=O)[C@H](C(C)C)N(C)C(=O)CN(C)C(=O)[C@H](Cc2ccccc2)NC(=O)[C@H](C(C)C)N(C)C(=O)[C@H](C)N(C)C(=O)[C@H]([C@@H](C)O)NC(=O)[C@H](Cc2ccccc2)N(C)C(=O)[C@H](C)NC(=O)CCN(C)C(=O)C[C@@H](C(=O)N2CCCCC2)NC1=O [DP-408] ([NMeβAla]A[NMeF]T[NMeA][NMeV]F[Sar][NMeV][NMeA]LD-Piperidide; lactam N-12),"Papp at 18 hours, 50 µM",[1]; pH 6.5,1.9 ×10⁻⁶ cm/s
same,microsomal CLint at 1 uM,"[2]; human, pH 7.4, CL NADPH(+)",14 µL/min/mg
